Key:
Plasma [1] = experiment: AUC (0 to t) in human MDA-MB-231 cells xenografted SCID mouse plasma at 10 mg/kg, iv administered as single dose; format: ADME, organism-based; set-up: dose 10 mg/kg, route intravenous; conditions: in vivo
[2] = AUC (0 to t) in human MDA-MB-231 cells xenografted SCID mouse tumor at 10 mg/kg, po administered as single dose; format: ADME, organism-based, Neoplasm; set-up: dose 10 mg/kg, route oral
Plasma [3] = experiment: Oral bioavailability in human MDA-MB-231 cells xenografted SCID mouse plasma at 30 mg/kg administered as single dose; format: ADME, organism-based; conditions: in vivo
[4] = target: Baculoviral IAP repeat-containing protein 3 (Homo sapiens, UniProt Q13489); experiment: Competitive inhibition of human cIAP2 BIR3 domain expressed in Escherichia coli BL21(DE3) after 2 to 3 hrs by fluorescence polarization assay
Plasma [5] = experiment: Half life in human MDA-MB-231 cells xenografted SCID mouse plasma at 10 mg/kg, iv administered as single dose; format: ADME, organism-based; set-up: dose 10 mg/kg, route intravenous; conditions: in vivo
Plasma [6] = experiment: Oral bioavailability in human MDA-MB-231 cells xenografted SCID mouse plasma at 10 mg/kg administered as single dose; format: ADME, organism-based; conditions: in vivo
[7] = AUC (0 to t) in human MDA-MB-231 cells xenografted SCID mouse tumor at 100 mg/kg, po administered as single dose; format: ADME, organism-based, Neoplasm; set-up: dose 100 mg/kg, route oral
Mus musculus = experiment: Toxicity in human MDA-MB-231 cells xenografted in SCID mouse at 200 mg/kg, po administered daily for 5 days/week for 2 to 3 weeks; conditions: in vivo
Canis familiaris = species on record: Canis familiaris; experiment: Toxicity in dog assessed as drug tolerability; format: organism-based, Canis lupus familiaris; conditions: in vivo
[8] = Tmax in human MDA-MB-231 cells xenografted SCID mouse plasma at 10 mg/kg, po administered as single dose; format: ADME, organism-based; set-up: dose 10 mg/kg, route oral
in vivo [9] = conditions: SCID, mouse, tumor, po, 30 mg/kg
[10] = Toxicity in human MCF12F cells assessed as induction of cell death at 10 uM after 48 hrs by trypan blue exclusion assay; format: cell-based
[11] = Tmax in human MDA-MB-231 cells xenografted SCID mouse tumor at 100 mg/kg, po administered as single dose; format: ADME, organism-based, Neoplasm; set-up: dose 100 mg/kg, route oral
[12] = Tmax in human MDA-MB-231 cells xenografted SCID mouse tumor at 10 mg/kg, iv administered as single dose; format: ADME, organism-based, Neoplasm; set-up: dose 10 mg/kg, route intravenous
[13] = Tmax in human MDA-MB-231 cells xenografted SCID mouse tumor at 10 mg/kg, po administered as single dose; format: ADME, organism-based, Neoplasm; set-up: dose 10 mg/kg, route oral
in vivo [14] = conditions: SCID, mouse, tumor, po, 10 mg/kg
Plasma [15] = experiment: AUC (0 to t) in human MDA-MB-231 cells xenografted SCID mouse plasma at 10 mg/kg, po administered as single dose; format: ADME, organism-based; set-up: dose 10 mg/kg, route oral; conditions: in vivo
MDA-MB-231 = experiment: cells; conditions: Homo sapiens, MDA-MB-231, 96 h
Plasma [16] = experiment: Oral bioavailability in human MDA-MB-231 cells xenografted SCID mouse plasma at 100 mg/kg administered as single dose; format: ADME, organism-based; conditions: in vivo
Plasma [17] = experiment: AUC (0 to t) in human MDA-MB-231 cells xenografted SCID mouse plasma at 30 mg/kg, po administered as single dose; format: ADME, organism-based; set-up: dose 30 mg/kg, route oral; conditions: in vivo
[18] = AUC (0 to t) in human MDA-MB-231 cells xenografted SCID mouse tumor at 10 mg/kg, iv administered as single dose; format: ADME, organism-based, Neoplasm; set-up: dose 10 mg/kg, route intravenous
[19] = Aqueous solubility of the compound; format: physicochemical; conditions: buffer
[20] = Tmax in human MDA-MB-231 cells xenografted SCID mouse tumor at 30 mg/kg, po administered as single dose; format: ADME, organism-based, Neoplasm; set-up: dose 30 mg/kg, route oral
[21] = Toxicity in human prostate epithelial cells assessed as induction of cell death at 10 uM after 48 hrs by trypan blue exclusion assay; format: cell-based
Plasma [22] = experiment: Half life in human MDA-MB-231 cells xenografted SCID mouse plasma at 30 mg/kg, po administered as single dose; format: ADME, organism-based; set-up: dose 30 mg/kg, route oral; conditions: in vivo
Plasma [23] = experiment: Half life in human MDA-MB-231 cells xenografted SCID mouse plasma at 10 mg/kg, po administered as single dose; format: ADME, organism-based; set-up: dose 10 mg/kg, route oral; conditions: in vivo
[24] = Tmax in human MDA-MB-231 cells xenografted SCID mouse plasma at 30 mg/kg, po administered as single dose; format: ADME, organism-based; set-up: dose 30 mg/kg, route oral
Plasma [25] = experiment: AUC (0 to t) in human MDA-MB-231 cells xenografted SCID mouse plasma at 100 mg/kg, po administered as single dose; format: ADME, organism-based; set-up: dose 100 mg/kg, route oral; conditions: in vivo
[26] = AUC (0 to t) in human MDA-MB-231 cells xenografted SCID mouse tumor at 30 mg/kg, po administered as single dose; format: ADME, organism-based, Neoplasm; set-up: dose 30 mg/kg, route oral
[27] = target: E3 ubiquitin-protein ligase XIAP (Homo sapiens, UniProt P98170); experiment: Competitive inhibition of human XIAP BIR3 domain expressed in Escherichia coli BL21(DE3) after 2 to 3 hrs by fluorescence polarization assay
SK-OV-3 = experiment: cells; conditions: Homo sapiens, SK-OV-3, 96 h
Plasma [28] = experiment: Half life in human MDA-MB-231 cells xenografted SCID mouse plasma at 100 mg/kg, po administered as single dose; format: ADME, organism-based; set-up: dose 100 mg/kg, route oral; conditions: in vivo
in vivo [29] = conditions: SCID, mouse, tumor, iv, 10 mg/kg
[30] = Inhibition of Cytochrome P450; format: ADME
in vivo [31] = conditions: SCID, mouse, tumor, po, 100 mg/kg

Q: For `CN[C@@H](C)C(=O)N[C@H]1CN(C(=O)CC(C)C)CC[C@H]2CC[C@@H](C(=O)NC(c3ccccc3)c3ccccc3)N2C1=O` [XEVINAPANT], which AUCt (Plasma [1]) is on record?
A: 3800 ng·h/mL

Q: And the AUC(0-t) [2]?
A: 1100 ng·h/mL

Q: What about the F (Plasma [3]) of the same molecule?
A: 38%

Q: What about the IC50 [4] of the same molecule?
A: 22.1 nM

Q: What about the Ki [4] of the same molecule?
A: 5.1 nM

Q: And the t1/2 (Plasma [5])?
A: 3 h

Q: What about the F (Plasma [6]) of the same molecule?
A: 31%

Q: What about the AUC(0-t) [7] of the same molecule?
A: 57300 ng·h/mL

Q: And the Activity (Mus musculus)?
A: Non-toxic

Q: And the Activity (Canis familiaris)?
A: Non-toxic

Q: What about the Tmax [8] of the same molecule?
A: 1 h

Q: What about the Cmax (in vivo [9]) of the same molecule?
A: 2400 ng/mL

Q: What about the Activity [10] of the same molecule?
A: Non-toxic

Q: And the Tmax [11]?
A: 2 h

Q: What about the Tmax [12] of the same molecule?
A: 0.25 h

Q: What about the Tmax [13] of the same molecule?
A: 1 h

Q: What about the Cmax (in vivo [14]) of the same molecule?
A: 260 ng/mL

Q: What about the AUCt (Plasma [15]) of the same molecule?
A: 1200 ng·h/mL

Q: And the IC50 (MDA-MB-231)?
A: 144 nM

Q: What about the F (Plasma [16]) of the same molecule?
A: 46%

Q: What about the AUCt (Plasma [17]) of the same molecule?
A: 4300 ng·h/mL

Q: And the AUC(0-t) [18]?
A: 8300 ng·h/mL

Q: What about the solubility [19] of the same molecule?
A: > 50 mg/mL

Q: What about the Tmax [20] of the same molecule?
A: 2 h

Q: And the Activity [21]?
A: Non-toxic

Q: What about the t1/2 (Plasma [22]) of the same molecule?
A: 2.3 h

Q: And the t1/2 (Plasma [23])?
A: 2.4 h

Q: And the Tmax [24]?
A: 2 h

Q: And the AUCt (Plasma [25])?
A: 17400 ng·h/mL

Q: What about the AUC(0-t) [26] of the same molecule?
A: 9600 ng·h/mL

Q: And the IC50 [27]?
A: 225 nM

Q: What about the Ki [27] of the same molecule?
A: 66.4 nM

Q: What about the IC50 (SK-OV-3) of the same molecule?
A: 142 nM

Q: And the t1/2 (Plasma [28])?
A: 5.4 h

Q: And the Cmax (in vivo [29])?
A: 3600 ng/mL

Q: What about the “inhibition (INH)” value [30] of the same molecule?
A: Not Active

Q: And the Cmax (in vivo [31])?
A: 10800 ng/mL
